Drawing on US4966900A, “Cephalosporin β-lactam compound and medicinal composition” (priority 1986, dated 1990), this text covers MIC for five compounds.

≈ marks a conversion by molar mass, not a printed value. Counter-ions that a name gives are not always drawn.

Among the test systems are S. aureus Smith; E. coli ML4707; E. coli GN5482; K. pneumoniae 4at521; E. colacae GN7471; C. freundii GN7391; S. marcescens GN10857; P. vulgaris GN7919; P. aeruginosa 4au542; P. aeruginosa 5D58-1; P. cepacia OF189; C. freundii 5D60-1; C. freundii 1U589; C. freundii 1U692.
What all share (experiment): MIC
In a further test the test system is E. cloacae 1Y247. It counts as cell-based. Conditions: Enterobacter cloacae, Table 6, read-out: MIC. On the procedure: (§1) The minimum inhibition concentrations (MIC) of the compounds obtained in the respective examples described above were measured according to the standard method of Japanese Chemotherapy Association.
For the next test, the system named is S. aureus IAA498. It counts as cell-based. The settings on record: Staphylococcus aureus. On the procedure:
as §1

A further test has as its system E. cloacae 908RN. Conditions: Enterobacter cloacae.
In a further test the test system is P. aeruginosa GN10362. The settings on record: Pseudomonas aeruginosa, GN10362.
For another test, the system named is P. maltophilia OF247. The settings on record: Stenotrophomonas maltophilia.
The subject of another test is E. cloacae 5D52-2. Conditions: Enterobacter cloacae, 5D522.
In another test the test system is E. cloacae 5D63-2. Conditions: Enterobacter cloacae, 5D632.
A further test has as its system E. cloacae 1V25. Conditions: Enterobacter cloacae.
The subject of a further test is C. freundii 1R523. The settings on record: Citrobacter freundii, 1R523.
The next test has as its system C. freundii 1R524. Conditions: Citrobacter freundii, 1R524.
The test system of another test is C. freundii 1R526. Conditions: Citrobacter freundii, 1R526.
In a further test the test system is C. freundii 1R527. Conditions: Citrobacter freundii, 1R527.
[1] abbreviates: Escherichia coli, ML4707, E. coli ML4707, Table 5.
Setting [2] is: Escherichia coli, GN5482, E. coli GN5482, Table 5.
Setting [3] is: Citrobacter freundii, GN7391, C. freundii GN7391, Table 5.
Where [4] appears, read: Citrobacter freundii, GN7391, C. freundii GN7391, Table 6.
[5] abbreviates: Serratia marcescens, GN10857, S. marcescens GN10857, Table 5.
The mark [6] stands for this setting: Pseudomonas aeruginosa, 4AU542, P. aeruginosa 4au542, Table 5.
Setting [7] is: Pseudomonas aeruginosa, 5D581, P. aeruginosa 5D58-1, Table 5.
Where [8] appears, read: Burkholderia cepacia, OF189, P. cepacia OF189, Table 5.

Broadly, the MIC is the lowest concentration that inhibits growth of the organism. On to `Cc1nc2ncnn2c(SCC2=C(C(=O)O)N3C(=O)C(NC(=O)C(=NOC(C)(C)C(=O)NNC(=O)c4ccc(O)c(O)c4)c4csc(N)n4)C3SC2)c1C` (centres unmarked) [Example 39], for which the MIC in the test with E. cloacae 1Y247 is 1.56 µg/mL (≈ 1.96 µM); in the test on S. aureus IAA498 (Table 5) it was 12.5 µg/mL (≈ 15.7 µM); in the test on S. aureus Smith (Staphylococcus aureus, Table 5), 12.5 µg/mL (≈ 15.7 µM); in the test on E. coli ML4707 (setting [1]), less than 0.006 µg/mL; with E. coli GN5482 (setting [2]) it was less than 0.006 µg/mL; against K. pneumoniae 4at521 (Klebsiella pneumoniae, 4AT521), 0.012 µg/mL (≈ 0.015 µM). Besides, the MIC in the test with E. colacae GN7471 (Table 5) was 1.56 µg/mL (≈ 1.96 µM); against E. cloacae 908RN (E. cloacae 908RN, Table 6) it was 3.13 µg/mL (≈ 3.92 µM); in the test with E. cloacae 908RN (E. colacae 908RN, Table 5), 1.56 µg/mL (≈ 1.96 µM); in the test with C. freundii GN7391 (setting [3]), 3.13 µg/mL (≈ 3.92 µM); in the test with C. freundii GN7391 (setting [4]), 3.13 µg/mL (≈ 3.92 µM); with S. marcescens GN10857 (setting [5]) it was 0.2 µg/mL (≈ 0.251 µM). For the same compound, the minimum inhibitory concentration (MIC) is 0.78 µg/mL (≈ 0.978 µM) in the test on P. vulgaris GN7919 (Proteus vulgaris, GN7919); 0.2 µg/mL (≈ 0.251 µM) against P. aeruginosa GN10362; 0.39 µg/mL (≈ 0.489 µM) against P. aeruginosa 4au542 (setting [6]); 0.78 µg/mL (≈ 0.978 µM) in the test with P. aeruginosa 5D58-1 (setting [7]); less than 0.006 µg/mL against P. cepacia OF189 (setting [8]); 0.2 µg/mL (≈ 0.251 µM) in the test on P. maltophilia OF247 (Table 5). In addition, the MIC turned out to be 0.39 µg/mL (≈ 0.489 µM) against E. cloacae 5D52-2; 0.2 µg/mL (≈ 0.251 µM) against E. cloacae 5D63-2; 12.5 µg/mL (≈ 15.7 µM) against E. cloacae 1V25; 0.39 µg/mL (≈ 0.489 µM) in the test with C. freundii 5D60-1 (Citrobacter freundii, 5D601); 0.1 µg/mL (≈ 0.125 µM) against C. freundii 1R523; 0.1 µg/mL (≈ 0.125 µM) with C. freundii 1R524. In addition, the MIC in the test on C. freundii 1R526 stood at 0.1 µg/mL (≈ 0.125 µM); against C. freundii 1R527, 0.1 µg/mL (≈ 0.125 µM); against C. freundii 1U589 (Citrobacter freundii, 1U589), 0.39 µg/mL (≈ 0.489 µM); with C. freundii 1U692 (Citrobacter freundii, 1U692), 0.39 µg/mL (≈ 0.489 µM).
In the case of `CC(C)(ON=C(C(=O)NC1C(=O)N2C(C(=O)O)=C(CSc3c4c(nc5ncnn35)CCC4)CSC12)c1csc(N)n1)C(=O)NNC(=O)c1ccc(O)c(O)c1` (centres unmarked) [Example 36], the MIC with E. cloacae 1Y247 is 12.5 µg/mL (≈ 15.4 µM); against S. aureus IAA498 (Table 5) it was 12.5 µg/mL (≈ 15.4 µM); with S. aureus Smith (Staphylococcus aureus, Table 5), 6.25 µg/mL (≈ 7.72 µM); in the test with E. coli ML4707 (setting [1]), 0.012 µg/mL (≈ 0.0148 µM); with E. coli GN5482 (setting [2]) it was 0.012 µg/mL (≈ 0.0148 µM); against K. pneumoniae 4at521 (Klebsiella pneumoniae, 4AT521), 0.012 µg/mL (≈ 0.0148 µM). Besides, the MIC worked out at 3.13 µg/mL (≈ 3.86 µM) with E. colacae GN7471 (Table 5); 12.5 µg/mL (≈ 15.4 µM) in the test with E. cloacae 908RN (E. cloacae 908RN, Table 6); 3.13 µg/mL (≈ 3.86 µM) in the test on E. cloacae 908RN (E. colacae 908RN, Table 5); 3.13 µg/mL (≈ 3.86 µM) against C. freundii GN7391 (setting [3]); 6.25 µg/mL (≈ 7.72 µM) in the test on C. freundii GN7391 (setting [4]); 0.39 µg/mL (≈ 0.482 µM) against S. marcescens GN10857 (setting [5]). Also, the minimal inhibitory concentration (MIC) turned out to be 0.78 µg/mL (≈ 0.963 µM) against P. vulgaris GN7919 (Proteus vulgaris, GN7919); 0.2 µg/mL (≈ 0.247 µM) against P. aeruginosa GN10362; 0.39 µg/mL (≈ 0.482 µM) against P. aeruginosa 4au542 (setting [6]); 0.78 µg/mL (≈ 0.963 µM) with P. aeruginosa 5D58-1 (setting [7]); 0.012 µg/mL (≈ 0.0148 µM) in the test on P. cepacia OF189 (setting [8]); 0.2 µg/mL (≈ 0.247 µM) against P. maltophilia OF247 (Table 5). The MIC came out at 0.2 µg/mL (≈ 0.247 µM) in the test with E. cloacae 5D52-2; 0.39 µg/mL (≈ 0.482 µM) with E. cloacae 5D63-2; 12.5 µg/mL (≈ 15.4 µM) in the test with E. cloacae 1V25; 1.56 µg/mL (≈ 1.93 µM) in the test on C. freundii 5D60-1 (Citrobacter freundii, 5D601); 0.2 µg/mL (≈ 0.247 µM) against C. freundii 1R523; 0.2 µg/mL (≈ 0.247 µM) in the test on C. freundii 1R524. The MIC against C. freundii 1R526 came to 0.2 µg/mL (≈ 0.247 µM); with C. freundii 1R527 it was 0.2 µg/mL (≈ 0.247 µM); against C. freundii 1U589 (Citrobacter freundii, 1U589), 0.39 µg/mL (≈ 0.482 µM); with C. freundii 1U692 (Citrobacter freundii, 1U692) it was 0.39 µg/mL (≈ 0.482 µM).
As for `Cc1cc(SCC2=C(C(=O)O)N3C(=O)C(NC(=O)C(=NOC(C)(C)C(=O)NNC(=O)c4ccc(O)c(O)c4)c4csc(N)n4)[C@H]3SC2)n2nc(C(F)(F)F)nc2n1` (some centres unmarked) [Example 55, 7-{2-[2-Amino-1,3-thiazol-4-yl]-2-[1-(3-(3,4-dihydroxybenzoyl)carbazoyl)-1-methylethoxyimino]acetamido}-3-[(5-methyl-2-trifluoromethyl-s-triazolo[1,5-a]pyrimidin-7-yl)-thiomethyl]-3-cephem-4-carboxylic acid], the MIC stood at 6.25 µg/mL (≈ 7.34 µM) with S. aureus IAA498 (Table 7); 6.25 µg/mL (≈ 7.34 µM) in the test with S. aureus Smith (Staphylococcus aureus, Table 7); 0.05 µg/mL (≈ 0.0587 µM) in the test with E. coli ML4707 (Escherichia coli, ML4707, E. coli ML4707, Table 7); 0.025 µg/mL (≈ 0.0293 µM) in the test with E. coli GN5482 (Escherichia coli, GN5482, E. coli GN5482, Table 7); 0.025 µg/mL (≈ 0.0293 µM) with K. pneumoniae 4at521 (Klebsiella pneumoniae, 4AT521); 25 µg/mL (≈ 29.3 µM) in the test on E. colacae GN7471 (Table 7). In addition, the MIC came out at 12.5 µg/mL (≈ 14.7 µM) against E. cloacae 908RN (E. colacae 908RN, Table 7); 6.25 µg/mL (≈ 7.34 µM) in the test with C. freundii GN7391 (Citrobacter freundii, GN7391, C. freundii GN7391, Table 7); 1.56 µg/mL (≈ 1.83 µM) against S. marcescens GN10857 (Serratia marcescens, GN10857, S. marcescens GN10857, Table 7); 1.56 µg/mL (≈ 1.83 µM) with P. vulgaris GN7919 (Proteus vulgaris, GN7919); 0.39 µg/mL (≈ 0.458 µM) with P. aeruginosa GN10362; 0.39 µg/mL (≈ 0.458 µM) against P. aeruginosa 4au542 (Pseudomonas aeruginosa, 4AU542, P. aeruginosa 4au542, Table 7). Also, the MIC turned out to be 0.39 µg/mL (≈ 0.458 µM) against P. aeruginosa 5D58-1 (Pseudomonas aeruginosa, 5D581, P. aeruginosa 5D58-1, Table 7); 0.05 µg/mL (≈ 0.0587 µM) against P. cepacia OF189 (Burkholderia cepacia, OF189, P. cepacia OF189, Table 7); 1.56 µg/mL (≈ 1.83 µM) with P. maltophilia OF247 (Table 7).
As to cephazoline [CAZ, reference compound], the MIC was 6.25 µg/mL against S. aureus Smith (Table 5); 0.05 µg/mL in the test on E. coli ML4707 (E. coli ML4707, Table 5); 0.78 µg/mL in the test on E. coli GN5482 (E. coli GN5482, Table 5); 0.10 µg/mL against K. pneumoniae 4at521 (K. pneumoniae 4at521, Table 5); 3.13 µg/mL with E. colacae GN7471 (Table 5); greater than 100.00 µg/mL against C. freundii GN7391 (C. freundii GN7391, Table 5). For the same compound, the MIC with C. freundii GN7391 (C. freundii GN7391, Table 6) was greater than 100 µg/mL; in the test on S. marcescens GN10857 (S. marcescens GN10857, Table 5) it was 1.56 µg/mL; in the test on P. vulgaris GN7919 (P. vulgaris Gn7919, Table 5) it was 1.56 µg/mL; against P. aeruginosa 4au542 (P. aeruginosa 4au542, Table 5) it was 1.56 µg/mL; with P. aeruginosa 5D58-1 (P. aeruginosa 5D58-1, Table 5) it was 0.78 µg/mL; against P. cepacia OF189 (P. cepacia OF189, Table 5), 3.13 µg/mL. Moreover, the MIC was greater than 100 µg/mL against C. freundii 5D60-1 (C. freundii 5D60-1, Table 6); greater than 100 µg/mL against C. freundii 5D60-1 (C. freundii 5D60-1, Table 8); 100 µg/mL against C. freundii 1U589 (C. freundii 1U589, Table 6); 100 µg/mL with C. freundii 1U589 (C. freundii 1U589, Table 8); 100 µg/mL against C. freundii 1U692 (C. freundii 1U692, Table 6); 50.000 µg/mL against C. freundii 1U692 (C. freundii 1U692, Table 8).
Take `CC(C)(ON=C(C(=O)NC1C(=O)N2C(C(=O)O)=C(CSc3ccnc4ncnn34)CSC12)c1csc(N)n1)C(=O)NNC(=O)c1ccc(O)c(O)c1` (centres unmarked) [Example 38, 7-{2-[2-Amino-1,3-thiazol-4-yl]-2-[1-(3-(3,4-dihydroxybenzoyl)carbazoyl)-1-methylethoxyimino]acetamide}-3-[(s-triazolo[1,5-a]pyrimidin-7-yl)thiomethyl]-3-cephem-4-carboxylic acid.hydrochloride]: the MIC in the test on S. aureus IAA498 (Table 5) was determined as 3.13 µg/mL; with S. aureus Smith (Staphylococcus aureus, Table 5), 1.56 µg/mL; against E. coli ML4707 (setting [1]), 0.012 µg/mL; against E. coli GN5482 (setting [2]) it was 0.025 µg/mL; against K. pneumoniae 4at521 (Klebsiella pneumoniae, 4AT521), 0.012 µg/mL; in the test on E. colacae GN7471 (Table 5) it was 3.13 µg/mL. Further, the minimum inhibitory concentration (MIC) in the test with E. cloacae 908RN (E. colacae 908RN, Table 5) turned out to be 25 µg/mL; in the test on C. freundii GN7391 (setting [3]) it was 25 µg/mL; against S. marcescens GN10857 (setting [5]) it was 0.39 µg/mL; with P. vulgaris GN7919 (Proteus vulgaris, GN7919) it was 1.56 µg/mL; with P. aeruginosa GN10362 it was 0.1 µg/mL; in the test with P. aeruginosa 4au542 (setting [6]) it was 0.1 µg/mL. Besides, the results for the MIC against P. aeruginosa 5D58-1 (setting [7]), with P. cepacia OF189 (setting [8]) and with P. maltophilia OF247 (Table 5) were 0.39 µg/mL, 0.025 µg/mL and 0.78 µg/mL, respectively.
